Results: US9896440B2, “Aryl substituted heterocyclyl sulfones” (GRÜNENTHAL GMBH, priority 2014, dated 2018)

Target: T1, Human CaV2.2 channels (Homo sapiens, UniProt Q00975)
T1 construct: expressed in transfected cells; Kir2.3 also stably co-expressed
Experiment: Fluorescence assay for CaV2.2 channels using potassium depolarization to induce channel opening (FLIPR, Fluo 4)
Format: cell-based
Details: 3 μM test compound, 30 mM KCl assay buffer (inactivated channel state), HEK293 cells
Outline: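 HEK293 cells stably co-expressing human CaV2.2 with α2δ and β subunits plus Kir2.3, Fluo-4 loaded; compounds preincubated 15 min at 25 °C in 1 mM or 30 mM KCl buffer (inactivated state), pH 7.4. Depolarized by KCl addition; baseline-normalized peak fluorescence (ex 480/em 535 nm) gave inhibition.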

T1 sequence (Q00975 whole entry): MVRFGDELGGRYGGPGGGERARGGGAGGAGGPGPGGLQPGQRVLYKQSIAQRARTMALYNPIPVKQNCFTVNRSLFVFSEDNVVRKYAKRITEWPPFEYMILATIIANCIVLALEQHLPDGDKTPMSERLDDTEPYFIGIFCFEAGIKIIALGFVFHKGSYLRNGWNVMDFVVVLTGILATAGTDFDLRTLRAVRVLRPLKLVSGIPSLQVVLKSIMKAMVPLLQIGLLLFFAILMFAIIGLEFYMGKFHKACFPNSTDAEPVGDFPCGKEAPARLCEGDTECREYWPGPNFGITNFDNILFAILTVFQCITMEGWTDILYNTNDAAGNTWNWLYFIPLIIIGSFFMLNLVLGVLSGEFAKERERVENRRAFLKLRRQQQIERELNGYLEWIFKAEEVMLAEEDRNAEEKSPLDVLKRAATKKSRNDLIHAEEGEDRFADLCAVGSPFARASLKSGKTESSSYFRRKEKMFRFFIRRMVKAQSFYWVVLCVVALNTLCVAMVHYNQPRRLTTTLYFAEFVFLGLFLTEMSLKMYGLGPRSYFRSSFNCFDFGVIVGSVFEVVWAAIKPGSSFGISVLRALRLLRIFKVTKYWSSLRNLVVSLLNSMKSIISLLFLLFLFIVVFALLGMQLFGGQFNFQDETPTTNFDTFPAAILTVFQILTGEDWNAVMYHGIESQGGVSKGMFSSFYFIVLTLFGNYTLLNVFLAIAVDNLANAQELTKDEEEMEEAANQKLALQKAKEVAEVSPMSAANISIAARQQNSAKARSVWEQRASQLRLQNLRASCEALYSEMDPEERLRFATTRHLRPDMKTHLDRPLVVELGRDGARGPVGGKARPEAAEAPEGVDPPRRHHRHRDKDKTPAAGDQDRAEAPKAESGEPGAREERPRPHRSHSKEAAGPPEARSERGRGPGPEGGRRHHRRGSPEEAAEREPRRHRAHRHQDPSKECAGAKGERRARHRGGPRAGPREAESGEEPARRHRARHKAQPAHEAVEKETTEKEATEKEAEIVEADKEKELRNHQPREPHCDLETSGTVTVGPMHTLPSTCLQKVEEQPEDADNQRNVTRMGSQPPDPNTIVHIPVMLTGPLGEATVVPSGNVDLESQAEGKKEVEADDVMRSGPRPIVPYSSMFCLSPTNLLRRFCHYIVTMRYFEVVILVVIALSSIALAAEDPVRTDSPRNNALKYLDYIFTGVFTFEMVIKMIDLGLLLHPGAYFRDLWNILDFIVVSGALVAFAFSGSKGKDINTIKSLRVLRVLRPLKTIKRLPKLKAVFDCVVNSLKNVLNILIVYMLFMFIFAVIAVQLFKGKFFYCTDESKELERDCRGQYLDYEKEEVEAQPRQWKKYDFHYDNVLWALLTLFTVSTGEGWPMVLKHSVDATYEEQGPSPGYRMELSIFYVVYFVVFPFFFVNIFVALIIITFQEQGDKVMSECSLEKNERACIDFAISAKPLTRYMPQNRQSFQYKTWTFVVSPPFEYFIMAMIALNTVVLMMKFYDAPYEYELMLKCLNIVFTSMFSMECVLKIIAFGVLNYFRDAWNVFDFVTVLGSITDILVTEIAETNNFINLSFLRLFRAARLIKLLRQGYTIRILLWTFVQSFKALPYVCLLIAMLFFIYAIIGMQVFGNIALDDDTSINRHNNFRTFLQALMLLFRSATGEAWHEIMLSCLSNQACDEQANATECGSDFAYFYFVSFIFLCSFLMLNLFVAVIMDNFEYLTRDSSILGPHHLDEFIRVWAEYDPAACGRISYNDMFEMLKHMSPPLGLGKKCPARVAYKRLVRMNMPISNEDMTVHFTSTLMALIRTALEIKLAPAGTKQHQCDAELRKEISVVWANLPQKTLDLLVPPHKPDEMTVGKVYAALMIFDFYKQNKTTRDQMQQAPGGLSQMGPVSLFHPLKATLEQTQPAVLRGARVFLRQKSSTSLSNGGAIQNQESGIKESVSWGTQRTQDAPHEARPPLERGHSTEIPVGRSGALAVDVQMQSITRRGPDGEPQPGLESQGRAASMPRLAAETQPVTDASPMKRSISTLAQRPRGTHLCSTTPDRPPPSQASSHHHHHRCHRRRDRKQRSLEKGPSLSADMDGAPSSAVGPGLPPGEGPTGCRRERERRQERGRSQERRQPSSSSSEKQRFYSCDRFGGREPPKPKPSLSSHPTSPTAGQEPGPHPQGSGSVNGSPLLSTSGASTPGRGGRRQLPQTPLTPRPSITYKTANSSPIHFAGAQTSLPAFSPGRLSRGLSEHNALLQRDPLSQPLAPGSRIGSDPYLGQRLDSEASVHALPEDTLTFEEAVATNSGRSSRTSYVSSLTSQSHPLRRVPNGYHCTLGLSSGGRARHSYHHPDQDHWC

How did the “Activity Category: %-Inhib (CaV2.2) @3 μM @30 mM KCl” value (shortened to “Activity Category: %-Inhib”) turn out when `CC1(S(=O)(=O)c2cccc(C(F)(F)F)c2)CCOC(c2ccc(S(C)(=O)=O)cc2C#N)C1` (centres unmarked) [SC-276, 5-Methylsulfonyl-2-[4-methyl-4-[[3-(trifluoromethyl)phenyl]sulfonyl]-tetrahydro-pyran-2-yl]-benzonitrile] was run?
The value was “A (%-Inhibition >95%)”.

How did the “Activity Category: %-Inhib” value turn out when `CC1(S(=O)(=O)c2cccc(C(F)(F)F)c2)CCOC(c2cc(S(C)(=O)=O)ccc2C2CC2)C1` (centres unmarked) [SC-278, 2-(2-Cyclopropyl-5-methylsulfonyl-phenyl)-4-methyl-4-[[3-(trifluoromethyl)phenyl]sulfonyl]-tetrahydro-pyran] was run?
Its value is “B (%-Inhibition >75% up to ≦95%)”.

`Cc1nc2cc(C3CC(C)(S(=O)(=O)c4cccc(C(F)(F)F)c4)CCO3)ccc2o1` (centres unmarked) [SC-280, 2-Methyl-5-[4-methyl-4-[[3-(trifluoromethyl)phenyl]sulfonyl]-tetrahydro-pyran-2-yl]-benzooxazole] was tested. Which “Activity Category: %-Inhib” value did it give?
Its value is “A (%-Inhibition >95%)”.

`C[S+]([O-])c1ccc(C2CC(C)(S(=O)(=O)c3cccc(C(F)(F)F)c3)CCO2)c(F)c1` (centres unmarked) [SC-281, 2-[2-Fluoro-4-(methylsulfinyl)-phenyl]-4-methyl-4-[[3-(trifluoromethyl)phenyl]sulfonyl]-tetrahydro-pyran] was tested. Which “Activity Category: %-Inhib” value did it give?
Its value is “B (%-Inhibition >75% up to ≦95%)”.

How did the “Activity Category: %-Inhib” value turn out when `C[S+]([O-])c1ccc(C2CC(C)(S(=O)(=O)c3cccc(C(F)(F)F)c3)CCO2)c(F)c1` (centres unmarked) [SC-282, 2-[2-Fluoro-4-(methylsulfinyl)-phenyl]-4-methyl-4-[[3-(trifluoromethyl)phenyl]sulfonyl]-tetrahydro-pyran] was run?
Its value is “B (%-Inhibition >75% up to ≦95%)”.

For `C[S+]([O-])c1ccc(C2CC(C)(S(=O)(=O)c3cccc(C(F)(F)F)c3)CCO2)c(F)c1` (centres unmarked) [SC-283, 2-[2-Fluoro-4-(methylsulfinyl)-phenyl]-4-methyl-4-[[3-(trifluoromethyl)phenyl]sulfonyl]-tetrahydro-pyran], which “Activity Category: %-Inhib” value is on record?
Its value is “B (%-Inhibition >75% up to ≦95%)”.

With `C[S+]([O-])c1ccc(C2CC(C)(S(=O)(=O)c3cccc(C(F)(F)F)c3)CCO2)c(F)c1` (centres unmarked) [SC-284, 2-[2-Fluoro-4-(methylsulfinyl)-phenyl]-4-methyl-4-[[3-(trifluoromethyl)phenyl]sulfonyl]-tetrahydro-pyran] as the compound, how does the “Activity Category: %-Inhib” value read?
Its value is “C (%-Inhibition >40% up to ≦75%)”.

With `C[S+]([O-])c1cc(Cl)ccc1C1CC(C)(S(=O)(=O)c2cccc(C(F)(F)F)c2)CCO1` (centres unmarked) [SC-288, 2-[4-Chloro-2-(methylsulfinyl)-phenyl]-4-methyl-4-[[3-(trifluoromethyl)phenyl]sulfonyl]-tetrahydro-pyran] as the compound, how does the “Activity Category: %-Inhib” value read?
The value was “B (%-Inhibition >75% up to ≦95%)”.

How did the “Activity Category: %-Inhib” value turn out when `C[S+]([O-])c1cc(Cl)ccc1C1CC(C)(S(=O)(=O)c2cccc(C(F)(F)F)c2)CCO1` (centres unmarked) [SC-289, 2-[4-Chloro-2-(methylsulfinyl)-phenyl]-4-methyl-4-[[3-(trifluoromethyl)phenyl]sulfonyl]-tetrahydro-pyran] was run?
The value was “C (%-Inhibition >40% up to ≦75%)”.

For `C[S+]([O-])c1cc(Cl)ccc1C1CC(C)(S(=O)(=O)c2cccc(C(F)(F)F)c2)CCO1` (centres unmarked) [SC-290, 2-[4-Chloro-2-(methylsulfinyl)-phenyl]-4-methyl-4-[[3-(trifluoromethyl)phenyl]sulfonyl]-tetrahydro-pyran], which “Activity Category: %-Inhib” value is on record?
Its value is “B (%-Inhibition >75% up to ≦95%)”.

With `C[S+]([O-])c1cc(Cl)ccc1C1CC(C)(S(=O)(=O)c2cccc(C(F)(F)F)c2)CCO1` (centres unmarked) [SC-291, 2-[4-Chloro-2-(methylsulfinyl)-phenyl]-4-methyl-4-[[3-(trifluoromethyl)phenyl]sulfonyl]-tetrahydro-pyran] as the compound, how does the “Activity Category: %-Inhib” value read?
The value was “A (%-Inhibition >95%)”.

With `CC1(S(=O)(=O)c2cccc(C(F)(F)F)c2)CCOC(c2cc(F)cc(S(C)(=O)=O)c2)C1` (centres unmarked) [SC-297, 2-(3-Fluoro-5-methylsulfonyl-phenyl)-4-methyl-4-[[3-(trifluoromethyl)phenyl]sulfonyl]-tetrahydro-pyran] as the compound, how does the “Activity Category: %-Inhib” value read?
Its value is “A (%-Inhibition >95%)”.

For `CC1(C)CC(C)(S(=O)(=O)c2cccc(C(F)(F)F)c2)CC(c2ccc(Cl)cc2)O1` (centres unmarked) [SC-301, 6-(4-Chlorophenyl)-2,2,4-trimethyl-4-[[3-(trifluoromethyl)phenyl]sulfonyl]-tetrahydro-pyran], which “Activity Category: %-Inhib” value is on record?
Its value is “B (%-Inhibition >75% up to ≦95%)”.

Which “Activity Category: %-Inhib” value does the source give for `CC1(S(=O)(=O)c2cc(F)cc(C(F)(F)F)c2)CCOC(c2ccc(Cl)cc2)C1` (centres unmarked) [SC-304, 2-(4-Chlorophenyl)-4-[[3-fluoro-5-(trifluoromethyl)-phenyl]sulfonyl]-4-methyl-tetrahydro-pyran] here?
The value was “A (%-Inhibition >95%)”.

Which “Activity Category: %-Inhib” value does the source give for `CC1(S(=O)(=O)c2cccc(C(F)(F)F)c2)CCOC(c2ccc(Cl)cc2)C1` (centres unmarked) [SC-311, 2-(4-Chlorophenyl)-4-methyl-4-[[3-(trifluoromethyl)phenyl]sulfonyl]-tetrahydro-pyran] here?
The value was “A (%-Inhibition >95%)”.

With `CC1(S(=O)(=O)c2cccc(C(F)(F)F)c2)CCOC(c2ccc(Cl)cc2)C1` (centres unmarked) [SC-312, 2-(4-Chlorophenyl)-4-methyl-4-[[3-(trifluoromethyl)phenyl]sulfonyl]-tetrahydro-pyran] as the compound, how does the “Activity Category: %-Inhib” value read?
The value was “B (%-Inhibition >75% up to ≦95%)”.

Same assay, conditions: HEK293, 3 μM test compound, 30 mM KCl assay buffer (inactivated channel state), HEK293 cells; read-out: Activity Category: %-Inhib (CaV2.2) @3 μM @30 mM KCl

With `CC(C)c1cccc(S(=O)(=O)C2(C)CCOC(c3ccc(S(C)(=O)=O)c(F)c3)C2)c1` (centres unmarked) [SC-271, 2-(3-Fluoro-4-methylsulfonyl-phenyl)-4-[(3-isopropyl-phenyl)sulfonyl]-4-methyl-tetrahydro-pyran] as the compound, how does the inhibition at 3 µM read?
The inhibition at 3 µM was greater than 95%.

With `CC1(S(=O)(=O)c2cccc(C(F)(F)F)c2)CCOC(c2cc(S(C)(=O)=O)ccc2C#N)C1` (centres unmarked) [SC-273, 4-Methylsulfonyl-2-[4-methyl-4-[[3-(trifluoromethyl)phenyl]sulfonyl]-tetrahydro-pyran-2-yl]-benzonitrile] as the compound, how does the inhibition at 3 µM read?
Its inhibition at 3 µM is 75 to 95%.

`CC1(S(=O)(=O)c2cccc(C(F)(F)F)c2)CCOC(c2ccc(S(C)(=O)=O)cc2C#N)C1` (centres unmarked) [SC-275, 5-Methylsulfonyl-2-[4-methyl-4-[[3-(trifluoromethyl)phenyl]sulfonyl]-tetrahydro-pyran-2-yl]-benzonitrile] was tested. Which inhibition at 3 µM did it give?
The inhibition at 3 µM was 75 to 95%.

With `CC1(S(=O)(=O)c2cccc(C(F)(F)F)c2)CCOC(c2cc(S(C)(=O)=O)ccc2C2CC2)C1` (centres unmarked) [SC-277, 2-(2-Cyclopropyl-5-methylsulfonyl-phenyl)-4-methyl-4-[[3-(trifluoromethyl)phenyl]sulfonyl]-tetrahydro-pyran] as the compound, how does the inhibition at 3 µM read?
Its inhibition at 3 µM is greater than 95%.

Which inhibition at 3 µM does the source give for `Cc1nc2cc(C3CC(C)(S(=O)(=O)c4cccc(C(F)(F)F)c4)CCO3)ccc2o1` (centres unmarked) [SC-279, 2-Methyl-5-[4-methyl-4-[[3-(trifluoromethyl)phenyl]sulfonyl]-tetrahydro-pyran-2-yl]-benzooxazole] here?
Its inhibition at 3 µM is 75 to 95%.

`CCc1nc2cc(C3CC(C)(S(=O)(=O)c4cccc(C(F)(F)F)c4)CCO3)ccc2o1` (centres unmarked) [SC-285, 2-Ethyl-5-[4-methyl-4-[[3-(trifluoromethyl)phenyl]sulfonyl]-tetrahydro-pyran-2-yl]-benzooxazole] was tested. Which inhibition at 3 µM did it give?
Its inhibition at 3 µM is 75 to 95%.

With `CC1(S(=O)(=O)c2cccc(C(F)(F)F)c2)CCOC(c2ccc(S(=O)(=O)CCO)cc2)C1` (centres unmarked) [SC-286, 2-[[4-[4-Methyl-4-[[3-(trifluoromethyl)phenyl]sulfonyl]-tetrahydro-pyran-2-yl]-phenyl]sulfonyl]-ethanol] as the compound, how does the inhibition at 3 µM read?
Its inhibition at 3 µM is 75 to 95%.

With `CC1(S(=O)(=O)c2cccc(C(F)(F)F)n2)CCOC(c2ccc(S(C)(=O)=O)cc2)C1` (centres unmarked) [SC-293, 2-[[4-Methyl-2-(4-methylsulfonyl-phenyl)-tetrahydro-pyran-4-yl]sulfonyl]-6-(trifluoromethyl)-pyridine] as the compound, how does the inhibition at 3 µM read?
The inhibition at 3 µM was 40 to 75%.

How did the inhibition at 3 µM turn out when `CC1(S(=O)(=O)c2cccc(C(F)(F)F)c2)CCOC(c2cc(S(C)(=O)=O)ccc2F)C1` (centres unmarked) [SC-294, 2-(2-Fluoro-5-methylsulfonyl-phenyl)-4-methyl-4-[[3-(trifluoromethyl)phenyl]sulfonyl]-tetrahydro-pyran] was run?
Its inhibition at 3 µM is 75 to 95%.

`CC1(S(=O)(=O)c2cccc(C(F)(F)F)c2)CCOC(c2cc(F)cc(S(C)(=O)=O)c2)C1` (centres unmarked) [SC-296, 2-(3-Fluoro-5-methylsulfonyl-phenyl)-4-methyl-4-[[3-(trifluoromethyl)phenyl]sulfonyl]-tetrahydro-pyran] was tested. Which inhibition at 3 µM did it give?
Its inhibition at 3 µM is 75 to 95%.

How did the inhibition at 3 µM turn out when `CC1(C)CC(C)(S(=O)(=O)c2cccc(C(F)(F)F)c2)CC(c2ccc(Cl)cc2)O1` (centres unmarked) [SC-300, 6-(4-Chlorophenyl)-2,2,4-trimethyl-4-[[3-(trifluoromethyl)phenyl]sulfonyl]-tetrahydro-pyran] was run?
Its inhibition at 3 µM is greater than 95%.

With `CC1(S(=O)(=O)c2cc(F)cc(C(F)(F)F)c2)CCOC(c2ccc(Cl)cc2)C1` (centres unmarked) [SC-303, 2-(4-Chlorophenyl)-4-[[3-fluoro-5-(trifluoromethyl)-phenyl]sulfonyl]-4-methyl-tetrahydro-pyran] as the compound, how does the inhibition at 3 µM read?
The inhibition at 3 µM was 75 to 95%.

How did the inhibition at 3 µM turn out when `CCC1(S(=O)(=O)c2cccc(C(F)(F)F)c2)CCOC(C2CC2)C1` (centres unmarked) [SC-306, 2-Cyclopropyl-4-ethyl-4-[[3-(trifluoromethyl)phenyl]sulfonyl]-tetrahydro-pyran] was run?
Its inhibition at 3 µM is 40 to 75%.

Which inhibition at 3 µM does the source give for `CC1(S(=O)(=O)c2cccc(C(F)(F)F)c2)CCOC(c2ccc(Cl)cc2)C1` (centres unmarked) [SC-310, 2-(4-Chlorophenyl)-4-methyl-4-[[3-(trifluoromethyl)phenyl]sulfonyl]-tetrahydro-pyran] here?
The inhibition at 3 µM was greater than 95%.

With `CC1(S(=O)(=O)c2cccc(OC(F)(F)F)c2)CCOC(c2ccc(Cl)cc2)C1` (centres unmarked) [SC-313, 2-(4-Chlorophenyl)-4-methyl-4-[[3-(trifluoromethyloxy)-phenyl]sulfonyl]-tetrahydro-pyran] as the compound, how does the inhibition at 3 µM read?
Its inhibition at 3 µM is greater than 95%.

Which inhibition at 3 µM does the source give for `O=S(=O)(c1cccc(C(F)(F)F)c1)C1CCOC(c2ccc(Cl)cc2)C1` (centres unmarked) [SC-401, 2-(4-Chlorophenyl)-4-[[3-(trifluoromethyl)phenyl]sulfonyl]-tetrahydro-pyran] here?
The inhibition at 3 µM was 75 to 95%.
